Results reported in patent US20250213701A1, “MEDICAMENT FOR TREATING HUMAN TUMOR BASED ON ERF3A-TARGETING PROTEOLYSIS MECHANISM” (SUZHOU DEGEN BIO-MEDICAL CO., LTD., priority 2022, published 2025).

What was measured:
Format in all cases: cell-based, human
22Rv1 cells = assay: Anti-proliferative toxicity against prostate cancer cell line 22Rv1 (CCK8); conditions: Homo sapiens, 72 h, 3 days, CCK8
Experimental: (§1) Example 82: Detection of Anti-Proliferative Toxicity Against Prostate Cancer Cell Lines Vcap, 22Rv1, and PC-3
(§2) Vcap cells (purchased from the Cell Bank of the Chinese Academy of Sciences, Cat. No. SCSP-5034) were subcultured in a culture medium (DMEM medium+1% penicillin-streptomycin dual-antibiotic solution+10% fetal bovine serum) in an incubator at 5% carbon dioxide and 37° C. 22Rv1 cells (purchased from the Cell Bank of the Chinese Academy of Sciences, Cat. No. TCHu100) were subcultured in a culture medium (RPMI-1640 medium+1% penicillin-streptomycin dual-antibiotic solution+10% fetal bovine serum) in an incubator at 5% carbon dioxide and 37° C.
22Rv1 cells were seeded at 5000 cells/well (90 μL) on a 96-well plate and cultured for 48 h.
(§3) 10 mM compound stock solutions were prepared in DMSO.
(§4) For 22Rv1 cells and PC-3 cells, the compound stock solution was diluted with DMSO to give DMSO solutions 11-19 at concentrations of 0 μM, 500 μM, 100 μM, 20 μM, 4 μM, 0.8 μM, 0.16 μM, 0.032 μM, 0.0064 μM.
For 22Rv1 cells, 2 μL of each of the above solutions 11-19 was added to 98 μL of 22Rv1 medium to give mixed solutions 30-38 of the compound and the medium.
(§5) For 22Rv1 and PC-3 cells, 10 μL of each of the above solutions 30-38 or 39-47 was added to the above cell seed solution to give a total volume of 100 μL (90 μL+10 μL), where the concentrations of the compound in wells were 0 μM, 1.0 μM, 0.2 μM, 0.04 μM, 0.008 μM, 0.0016 μM, 0.00032 μM, 0.00006 μM, and 0.00001 μM. All concentrations were in triplicate.
(§6) After the above-treated cells were cultured for 3 days, 10 μL of the CCK8 solution (DOJINDO, Cat. No. PF725) was added to each well. The plate was incubated in an incubator at 37° C. for 1-4 h and then detected on a microplate reader for the reading at 450 nm.

PC-3 cells = assay: Anti-proliferative toxicity against prostate cancer cell line PC-3 (CCK8); conditions: Homo sapiens, 72 h, 3 days
Experimental: as §1
PC-3 cells (purchased from the Cell Bank of the Chinese Academy of Sciences, Cat. No. SCSP-532) were subcultured in a culture medium (F12K medium+1% penicillin-streptomycin dual-antibiotic solution+10% fetal bovine serum) in an incubator at 5% carbon dioxide and 37° C.
PC-3 cells were seeded at 4000 cells/well (90 μL) on a 96-well plate and cultured for 24 h.
as §3, §4
For PC-3 cells, 2 μL of each of the above solutions 11-19 was added to 98 μL of PC-3 medium to give mixed solutions 39-47 of the compound and the medium.
as §5, §6

VCaP cells = assay: Anti-proliferative toxicity against prostate cancer cell line Vcap (CCK8); conditions: Homo sapiens, 72 h, 3 days, CCK8
Experimental: as §1, §2
VCap cells were seeded at 20000 cells/well (90 μL) on a 96-well plate and cultured for 72 h. The original medium was removed, and a new medium of 90 μL was added.
as §3
For VCap cells, the compound stock solution was diluted with DMSO to give DMSO solutions 1-10 at concentrations of 0 μM, 80 μM, 16 μM, 3.2 μM, 1.5 μM, 0.5 μM, 0.15 μM, 0.05 μM, 0.025 μM, and 0.0005 μM.
For Vcap cells, 2 μL of each of the above solutions 1-10 was added to 98 μL of Vcap medium to give mixed solutions 20-29 of the compound and the medium.
For Vcap cells, 10 μL of each of the above solutions 20-29 was added to the above cell seed solution to give a total volume of 100 μL (90 μL+10 μL), where the concentrations of the compound in wells were 0 μM, 0.16 μM, 0.032 μM, 0.006 μM, 0.003 μM, 0.001 μM, 0.0003 μM, 0.0001 μM, 0.00005 μM, and 0.00001 μM. All concentrations were in triplicate.
as §6

Structure (SMILES)	IC50 (22Rv1 cells) [nM]	IC50 (PC-3 cells) [nM]	IC50 (VCaP cells) [nM]
C[C@]12C=CC(=O)N[C@@H]1CC[C@@H]1[C@@H]2CC[C@]2(C)[C@@H](C(=O)Nc3ccc(OCCCCCCCCNc4ccc5c(c4)C(=O)N(C4CCC(=O)NC4=O)C5=O)cc3)CC[C@@H]12 (stereo partly drawn) [C26, N-(4-((8-((5-(2-(3-(2,6-dioxopiperidine))-isoindole-1,3-dione))amino)octyl)oxy)phenyl)-3-oxo-4-aza-5α-androst-1-ene-17β-carboxamide]	10 to 1000	> 1000	0.1 to 10
C[C@]12C=CC(=O)N[C@@H]1CC[C@@H]1[C@@H]2CC[C@]2(C)[C@@H](C(=O)NCCCNc3ccc4c(c3)C(=O)N(C3CCC(=O)NC3=O)C4=O)CC[C@@H]12 (stereo partly drawn) [C4, N-(3-((5-(2-(3-(2,6-dioxopiperidine))-isoindole-1,3-dione))amino)propyl)-3-oxo-4-aza-5α-androst-1-ene-17β-carboxamide]	> 1000	> 1000	> 1000
C[C@]12C=CC(=O)N[C@@H]1CC[C@@H]1[C@@H]2CC[C@]2(C)[C@@H](C(=O)Nc3cccc(N[C@H]4CCC[C@@H](Nc5cccc6c5C(=O)N(C5CCC(=O)NC5=O)C6=O)C4)c3)CC[C@@H]12 (stereo partly drawn) [C61, N-(3-(N—(N-(4-(2-(3-(2,6-dioxopiperidine))-isoindole-1,3-dione))-1S,3R-cyclohexanediamine))phenyl)-3-oxo-4-aza-5α-androst-1-ene-17β-carboxamide]	> 1000	> 1000	> 1000
C[C@]12C=CC(=O)N[C@@H]1CC[C@@H]1[C@@H]2CC[C@]2(C)[C@@H](C(=O)Nc3cccc(N[C@@H]4CCC[C@@H](Nc5cc(F)cc6c5C(=O)N(C5CCC(=O)NC5=O)C6=O)C4)c3)CC[C@@H]12 (stereo partly drawn) [C79, N-(3-(N—(N-(6-fluoro-4-(2-(3-(2,6-dioxopiperidine))-isoindole-1,3-dione))-1R,3R-cyclohexanediamine))phenyl)-3-oxo-4-aza-5α-androst-1-ene-17β-carboxamide]	0.1 to 10	0.1 to 10	0.1 to 10
CN(c1cccc(NC(=O)[C@H]2CC[C@H]3[C@@H]4CC[C@H]5NC(=O)C=C[C@]5(C)[C@H]4CC[C@]23C)c1)[C@@H]1CCC[C@@H](Nc2cccc3c2C(=O)N(C2CCC(=O)NC2=O)C3=O)C1 (stereo partly drawn) [C80, N-(3-(N—(N-methyl-N-(4-(2-(3-(2,6-dioxopiperidine))-isoindole-1,3-dione))-1R,3R-cyclohexanediamine))phenyl)-3-oxo-4-aza-5α-androst-1-ene-17β-carboxamide]	0.1 to 10	10 to 1000	0.1 to 10
C[C@]12C=CC(=O)N[C@@H]1CC[C@@H]1[C@@H]2CC[C@]2(C)[C@@H](C(=O)Nc3cccc(OCCCCCNc4cccc5c4C(=O)N(C4CCC(=O)NC4=O)C5=O)c3)CC[C@@H]12 (stereo partly drawn) [C33, N-(3-((5-((4-(2-(3-(2,6-dioxopiperidine))-isoindole-1,3-dione))amino)pentyl)oxy)phenyl)-3-oxo-4-aza-5α-androst-1-ene-171β-carboxamide]	> 1000	> 1000	> 1000
CC1[C@H](Nc2cccc(NC(=O)[C@H]3CC[C@H]4[C@@H]5CC[C@H]6NC(=O)C=C[C@]6(C)[C@H]5CC[C@]34C)c2)CCC[C@H]1Nc1cccc2c1C(=O)N(C1CCC(=O)NC1=O)C2=O (stereo partly drawn) [C69, N-(3-(N—(N-(4-(2-(3-(2,6-dioxopiperidine))-isoindole-1,3-dione))-2-methyl-1R,3R-cyclohexanediamine))phenyl)-3-oxo-4-aza-5α-androst-1-ene-17β-carboxamide]	0.1 to 10	10 to 1000	0.1 to 10
C[C@]12C=CC(=O)N[C@@H]1CC[C@@H]1[C@@H]2CC[C@]2(C)[C@@H](C(=O)Nc3cccc(N[C@@H]4CCC[C@@H](Nc5ccc(F)c6c5C(=O)N(C5CCC(=O)NC5=O)C6=O)C4)c3)CC[C@@H]12 (stereo partly drawn) [C78, N-(3-(N—(N-(7-fluoro-4-(2-(3-(2,6-dioxopiperidine))-isoindole-1,3-dione))-1R,3R-cyclohexanediamine))phenyl)-3-oxo-4-aza-5α-androst-1-ene-17β-carboxamide]	0.1 to 10	0.1 to 10	0.1 to 10
C[C@]12C=CC(=O)N[C@@H]1CC[C@@H]1[C@@H]2CC[C@]2(C)[C@@H](C(=O)Nc3cccc(OCC4CCN(c5cccc6c5C(=O)N(C5CCC(=O)NC5=O)C6=O)CC4)c3)CC[C@@H]12 (stereo partly drawn) [C42, N-(3-((4-methyl-1-(4-(2-(3-(2,6-dioxopiperidine))-isoindole-1,3-dione))-piperidinyl)oxy)phenyl)-3-oxo-4-aza-5α-androst-1-ene-17β-carboxamide]	> 1000	> 1000	> 1000
C[C@]12C=CC(=O)N[C@@H]1CC[C@@H]1[C@@H]2CC[C@]2(C)[C@@H](C(=O)Nc3cccc(OCCNc4cccc5c4C(=O)N(C4CCC(=O)NC4=O)C5=O)c3)CC[C@@H]12 (stereo partly drawn) [C27, N-(3-((2-((4-(2-(3-(2,6-dioxopiperidine))-isoindole-1,3-dione))amino)ethyl)oxy)phenyl)-3-oxo-4-aza-5α-androst-1-ene-17β-carboxamide]	> 1000	> 1000	10 to 1000
C[C@]12C=CC(=O)N[C@@H]1CC[C@@H]1[C@@H]2CC[C@]2(C)[C@@H](C(=O)Nc3cccc(OCCCCNc4cccc5c4C(=O)N(C4CCC(=O)NC4=O)C5=O)c3)CC[C@@H]12 (stereo partly drawn) [C31, N-(3-((4-((4-(2-(3-(2,6-dioxopiperidine))-isoindole-1,3-dione))amino)butyl)oxy)phenyl)-3-oxo-4-aza-5α-androst-1-ene-17β-carboxamide]	> 1000	> 1000	> 1000
C[C@]12C=CC(=O)N[C@@H]1CC[C@@H]1[C@@H]2CC[C@]2(C)[C@@H](C(=O)NCCCCNc3cccc4c3C(=O)N(C3CCC(=O)NC3=O)C4=O)CC[C@@H]12 (stereo partly drawn) [C5, N-(4-((4-(2-(3-(2,6-dioxopiperidine))-isoindole-1,3-dione))amino)butyl)-3-oxo-4-aza-5α-androst-1-ene-17β-carboxamide]	> 1000	> 1000	> 1000
C[C@]12C=CC(=O)N[C@@H]1CC[C@@H]1[C@@H]2CC[C@]2(C)[C@@H](C(=O)Nc3cccc(N4CCC(CN5CCN(c6ccc7c(c6)C(=O)N(C6CCC(=O)NC6=O)C7=O)CC5)CC4)c3)CC[C@@H]12 (stereo partly drawn) [C45, 1-(4-(1-(3-(3-oxo-4-aza-5α-androst-1-ene-17β-carboxamido)phenyl)piperidine)methyl)-4-(5-(2-(3-(2,6-dioxopiperidine))-isoindole-1,3-dione))piperazine]	> 1000	> 1000	> 1000
C[C@]12C=CC(=O)N[C@@H]1CC[C@@H]1[C@@H]2CC[C@]2(C)[C@@H](C(=O)N3CCC(CN4CCN(c5cccc6c5C(=O)N(C5CCC(=O)NC5=O)C6=O)CC4)CC3)CC[C@@H]12 (stereo partly drawn) [C13, 1-(4-(2-(3-(2,6-dioxopiperidine))-isoindole-1,3-dione))-4-(4-(1-(3-oxo-4-aza-5α-androst-1-ene-17β-formyl)piperidine)methyl)-piperazine]	> 1000	> 1000	> 1000
